The record followed here is PubChem BioAssay AID270 (DTP/NCI, 2004).

SMILES strings stand for the structures. Where “and” joins values, the source holds several entries; their conditions need not be identical. Equal entries are not always repeated. Inconclusive results are not listed.

For the test, the system named is BDF1 mice, s.c. Lewis lung carcinoma, T/C %. The test can be described thus: NCI In Vivo Anticancer Drug Screen. Data for tumor model Lewis Lung Carcinoma (subcutaneous) in B6D2F1 (BDF1) mice. As for the experimental part:
The antitumor activity of compounds was measured in mice bearing transplantable tumors. Survival or tumor size were measured and the results are expressed as the measurement made in the treated group (T) divided by the measurement made in the vehicle treated control group (C). The tumor model used in this assay is Lewis Lung Carcinoma (subcutaneous) in B6D2F1 (BDF1) mice

Setting [1] is: endpoint: median survival time, dose: 12.5 mg/kg/injection, schedule: Q01DX009 (ip), vehicle: Klucel (hydroxypropylcellulose) (HPC), higher = longer survival.
Setting [2] is: endpoint: mean tumor weight, dose: 12.5 mg/kg/injection, schedule: Q01DX011 (ip), vehicle: saline, higher = larger tumour.
Setting [3] is: endpoint: mean tumor weight, dose: 25.0 mg/kg/injection, schedule: Q01DX011 (ip), vehicle: saline, higher = larger tumour.

As to `CC1C/C=C2\CSC(NC(=O)/C3=C\N(C/C=C/C=C/C(O)CC(O)CC(=O)N3)C2=O)C(=O)O1` (configuration not stated), the T/C was 88 % of control (endpoint: mean tumor weight, dose: 10.6 mg/kg/injection, schedule: Q01DX011 (ip), vehicle: carboxymethylcellulose (CMC), higher = larger tumour); 169 % of control (endpoint: mean tumor weight, dose: 16.0 mg/kg/injection, schedule: Q01DX011 (ip), vehicle: carboxymethylcellulose (CMC), higher = larger tumour); 68 % of control (endpoint: mean tumor weight, dose: 24.0 mg/kg/injection, schedule: Q01DX011 (ip), vehicle: carboxymethylcellulose (CMC), higher = larger tumour); 114 % of control (endpoint: mean tumor weight, dose: 36.0 mg/kg/injection, schedule: Q01DX011 (ip), vehicle: carboxymethylcellulose (CMC), higher = larger tumour).
`C[C@]12C=CC(=O)C=C1CC[C@@H]1[C@@H]2C(=O)C[C@@]2(C)[C@H]1CC[C@]2(O)C(=O)CO`: the T/C (endpoint: mean tumor weight, dose: 6.25 mg/kg/injection, schedule: Q01DX011 (sc), vehicle: steriod suspending solution, higher = larger tumour) was 53 % of control; the T/C (endpoint: mean tumor weight, dose: 12.5 mg/kg/injection, schedule: Q01DX011 (sc), vehicle: steriod suspending solution, higher = larger tumour) was 36 % of control; the T/C (endpoint: mean tumor weight, dose: 25.0 mg/kg/injection, schedule: Q01DX011 (sc), vehicle: steriod suspending solution, higher = larger tumour) was 22 % of control; the T/C (endpoint: mean tumor weight, dose: 50.0 mg/kg/injection, schedule: Q01DX011 (sc), vehicle: steriod suspending solution, higher = larger tumour) was 25 % of control; the T/C (endpoint: median survival time, dose: 50.0 mg/kg/injection, schedule: Q01DX009 (ip), vehicle: Klucel (hydroxypropylcellulose) (HPC), higher = longer survival) was 88 % of control; the T/C (endpoint: median survival time, dose: 50.0 mg/kg/injection, schedule: Q01DX009 (ip), vehicle: saline with Tween-80, higher = longer survival) is 102 % of control and 122 % of control. Also, the T/C reads like this: (endpoint: median survival time, dose: 100.0 mg/kg/injection, schedule: Q01DX009 (ip), vehicle: Klucel (hydroxypropylcellulose) (HPC), higher = longer survival) 107 % of control; (endpoint: median tumor weight (est.), dose: 50.0 mg/kg/injection, schedule: Q01DX009 (ip), vehicle: saline with Tween-80, higher = larger tumour) 70 % of control.
On to `O=P(N1CCOCC1)(N1CC1)N1CC1`, for which the T/C reads like this: (endpoint: median survival time, dose: 0.78 mg/kg/injection, schedule: Q01DX009 (ip), vehicle: saline, higher = longer survival) 100 % of control; (endpoint: median survival time, dose: 1.56 mg/kg/injection, schedule: Q01DX009 (ip), vehicle: saline, higher = longer survival) 124 % of control; (endpoint: median survival time, dose: 3.12 mg/kg/injection, schedule: Q01DX009 (ip), vehicle: saline, higher = longer survival) 100 % of control; (endpoint: median survival time, dose: 3.13 mg/kg/injection, schedule: Q01DX009 (ip), vehicle: saline, higher = longer survival) 113 % of control; (endpoint: median survival time, dose: 6.25 mg/kg/injection, schedule: Q01DX009 (ip), vehicle: saline, higher = longer survival) 97 % of control and 110 % of control; (endpoint: median survival time, dose: 25.0 mg/kg/injection, schedule: Q01DX009 (ip), vehicle: saline, higher = longer survival) 107 % of control.
`N#CC(Cc1ccccc1)C(=O)O` (configuration not stated): the T/C (endpoint: mean tumor weight, dose: 55.0 mg/kg/injection, schedule: Q01DX011 (ip), vehicle: other, higher = larger tumour) is 80 % of control; the T/C (endpoint: mean tumor weight, dose: 83.0 mg/kg/injection, schedule: Q01DX011 (ip), vehicle: other, higher = larger tumour) is 68 % of control; the T/C (endpoint: mean tumor weight, dose: 125.0 mg/kg/injection, schedule: Q01DX011 (ip), vehicle: other, higher = larger tumour) was 75 % of control and 82 % of control; the T/C (endpoint: mean tumor weight, dose: 187.0 mg/kg/injection, schedule: Q01DX011 (ip), vehicle: other, higher = larger tumour) is 46 % of control; the T/C (endpoint: mean tumor weight, dose: 250.0 mg/kg/injection, schedule: Q01DX011 (ip), vehicle: other, higher = larger tumour) was 63 % of control; the T/C (endpoint: mean tumor weight, dose: 500.0 mg/kg/injection, schedule: Q01DX011 (ip), vehicle: other, higher = larger tumour) is 19 % of control.
Turning to `NC(Cc1c[nH]c2ccc(N(CCCl)CCCl)cc12)C(=O)O` (configuration not stated), the T/C (endpoint: mean tumor weight, dose: 0.13 mg/kg/injection, schedule: Q01DX011 (ip), vehicle: saline, higher = larger tumour) was 90 % of control; the T/C (endpoint: mean tumor weight, dose: 0.5 mg/kg/injection, schedule: Q01DX011 (ip), vehicle: saline, higher = larger tumour) is 90 % of control; the T/C (endpoint: mean tumor weight, dose: 1.0 mg/kg/injection, schedule: Q01DX011 (ip), vehicle: saline, higher = larger tumour) was 98 % of control; the T/C (endpoint: mean tumor weight, dose: 2.0 mg/kg/injection, schedule: Q01DX011 (ip), vehicle: saline, higher = larger tumour) was 102 % of control.
For `O=NN(CCCl)C(=O)NC1CCC(CC2CCC(NC(=O)N(CCCl)N=O)CC2)CC1` (configuration not stated), the T/C was 80 % of control (endpoint: median tumor weight (est.), dose: 46.0 mg/kg/injection, schedule: Q01DX001 (ip), vehicle: gum acacia, higher = larger tumour); 76 % of control (endpoint: median tumor weight (est.), dose: 93.0 mg/kg/injection, schedule: Q01DX001 (ip), vehicle: gum acacia, higher = larger tumour); 55 % of control (endpoint: median tumor weight (est.), dose: 187.0 mg/kg/injection, schedule: Q01DX001 (ip), vehicle: gum acacia, higher = larger tumour); 10 % of control (endpoint: median tumor weight (est.), dose: 250.0 mg/kg/injection, schedule: Q01DX001 (ip), vehicle: gum acacia, higher = larger tumour); 3 % of control (endpoint: median tumor weight (est.), dose: 375.0 mg/kg/injection, schedule: Q01DX001 (ip), vehicle: gum acacia, higher = larger tumour).
Consider `CCC[CH2][Sn]1([CH2]CCC)[O]C(=O)C[S]1`, for which the T/C reads like this: (endpoint: mean tumor weight, dose: 4.0 mg/kg/injection, schedule: Q01DX011 (ip), vehicle: saline, higher = larger tumour) 88 % of control; (endpoint: mean tumor weight, dose: 8.0 mg/kg/injection, schedule: Q01DX011 (ip), vehicle: saline, higher = larger tumour) 50 % of control; (endpoint: mean tumor weight, dose: 16.0 mg/kg/injection, schedule: Q01DX011 (ip), vehicle: saline, higher = larger tumour) 100 % of control.
With `Nc1nc(SCc2ccccc2)c2ncn(C3CCCC3)c2n1`, the T/C reads like this: (endpoint: mean tumor weight, dose: 75.0 mg/kg/injection, schedule: Q01DX011 (ip), vehicle: other, higher = larger tumour) 115 % of control; (endpoint: mean tumor weight, dose: 150.0 mg/kg/injection, schedule: Q01DX011 (ip), vehicle: other, higher = larger tumour) 81 % of control; (endpoint: mean tumor weight, dose: 300.0 mg/kg/injection, schedule: Q01DX011 (ip), vehicle: other, higher = larger tumour) 54 % of control; (endpoint: mean tumor weight, dose: 600.0 mg/kg/injection, schedule: Q01DX011 (ip), vehicle: other, higher = larger tumour) 47 % of control and 65 % of control; (endpoint: mean tumor weight, dose: 750.0 mg/kg/injection, schedule: Q01DX011 (ip), vehicle: other, higher = larger tumour) 52 % of control.
Regarding `C=C1C(=O)O[C@H]2C1[C@H](OC(=O)/C(C)=C\COC(C)=O)C[C@]1(CO1)[C@@H]1[C@H](O)[C@H]3O[C@@]3(C)[C@@H]12` (some centres not stated), the T/C runs as follows: (endpoint: median survival time, dose: 3.12 mg/kg/injection, schedule: Q01DX009 (ip), vehicle: other, higher = longer survival) 86 % of control; (endpoint: median survival time, dose: 6.25 mg/kg/injection, schedule: Q01DX009 (ip), vehicle: other, higher = longer survival) 89 % of control; (endpoint: median survival time, dose: 12.5 mg/kg/injection, schedule: Q01DX009 (ip), vehicle: other, higher = longer survival) 97 % of control; (endpoint: median survival time, dose: 25.0 mg/kg/injection, schedule: Q01DX009 (ip), vehicle: other, higher = longer survival) 99 % of control.
With `O=NN(CCCl)C(=O)Nc1cc2c3ccccc3ccc2c2ccccc12`, the T/C is 95 % of control (endpoint: median survival time, dose: 3.12 mg/kg/injection, schedule: Q01DX009 (ip), vehicle: Klucel (hydroxypropylcellulose) (HPC), higher = longer survival); 100 % of control (endpoint: median survival time, dose: 6.25 mg/kg/injection, schedule: Q01DX009 (ip), vehicle: Klucel (hydroxypropylcellulose) (HPC), higher = longer survival); 96 % of control under setting [1].
Regarding `O=C(O)/C=C\C(=O)Nc1nccs1`, the T/C (endpoint: mean tumor weight, dose: 50.0 mg/kg/injection, schedule: Q01DX011 (ip), vehicle: carboxymethylcellulose (CMC), higher = larger tumour) is 87 % of control and the T/C (endpoint: mean tumor weight, dose: 100.0 mg/kg/injection, schedule: Q01DX011 (ip), vehicle: carboxymethylcellulose (CMC), higher = larger tumour) was 85 % of control.
`CN(/N=N/N(C)c1ccccc1)c1ccccc1`: the T/C (endpoint: mean tumor weight, dose: 15.6 mg/kg/injection, schedule: Q01DX011 (ip), vehicle: carboxymethylcellulose (CMC), higher = larger tumour) is 77 % of control; the T/C (endpoint: mean tumor weight, dose: 31.3 mg/kg/injection, schedule: Q01DX011 (ip), vehicle: carboxymethylcellulose (CMC), higher = larger tumour) is 66 % of control; the T/C (endpoint: mean tumor weight, dose: 62.5 mg/kg/injection, schedule: Q01DX011 (ip), vehicle: carboxymethylcellulose (CMC), higher = larger tumour) was 52 % of control; the T/C (endpoint: mean tumor weight, dose: 125.0 mg/kg/injection, schedule: Q01DX011 (ip), vehicle: carboxymethylcellulose (CMC), higher = larger tumour) is 48 % of control.
With `C[C@@H]1C[C@@H]([C@H](O)CC2CC(=O)NC(=O)C2)C(=O)[C@@H](C)C1`, the T/C is, setting by setting: (endpoint: mean tumor weight, dose: 15.0 mg/kg/injection, schedule: Q01DX011 (ip), vehicle: carboxymethylcellulose (CMC), higher = larger tumour) 62 % of control and 81 % of control; (endpoint: mean tumor weight, dose: 30.0 mg/kg/injection, schedule: Q01DX011 (ip), vehicle: carboxymethylcellulose (CMC), higher = larger tumour) 50 % of control and 57 % of control.
`C[n+]1ccc(Nc2ccc(NC(=O)c3ccc(Nc4cc[n+](C)c5ccc(N)cc45)cc3N)cc2)cc1`: the T/C runs as follows: (endpoint: mean tumor weight, dose: 6.25 mg/kg/injection, schedule: Q01DX011 (ip), vehicle: saline, higher = larger tumour) 158 % of control; under setting [2], 40 % of control; (endpoint: median survival time, dose: 3.13 mg/kg/injection, schedule: Q01DX009 (ip), vehicle: Klucel (hydroxypropylcellulose) (HPC), higher = longer survival) 243 % of control; under setting [1], 244 % of control.
As to `CCC[C@H]1CCCCN1`, under setting [3], the T/C is 88 % of control.
On to `CCOC(=O)[C@H]1CCC[C@@H](NC(=O)N(CCCl)N=O)C1`, for which the T/C was 55 % of control (endpoint: median tumor weight (est.), dose: 20.0 mg/kg/injection, schedule: Q01DX001 (ip), vehicle: gum acacia, higher = larger tumour) and 34 % of control (endpoint: median tumor weight (est.), dose: 30.0 mg/kg/injection, schedule: Q01DX001 (ip), vehicle: gum acacia, higher = larger tumour).
For `CC[C@H](c1ccc(O)cc1)[C@@H](CC)c1ccc(O)cc1`, the T/C is, setting by setting: under setting [2], 92 % of control; under setting [3], 82 % of control; (endpoint: mean tumor weight, dose: 50.0 mg/kg/injection, schedule: Q01DX011 (ip), vehicle: saline, higher = larger tumour) 47 % of control; (endpoint: mean tumor weight, dose: 100.0 mg/kg/injection, schedule: Q01DX011 (ip), vehicle: saline, higher = larger tumour) 16 % of control.
